Data on 6 molecules can be found in US20240002467A1, “COMPOSITIONS AND METHODS OF INHIBITING THE BINDING OF PLASMA IGG AUTOANTIBODIES TO SEROTONIN 2A RECEPTOR” (UNITED STATES GOVERNMENT AS REPRESENTED BY THE DEPARTMENT …, priority 2020, published 2024).

For series [1] the following is noted: cited from earlier work.
Series [2] has as its system Zucker diabetic fatty rats. As to conditions: ZDF rats treated 6 months, cited from earlier work.
Series [3] relates to Zucker diabetic fatty rats. Kind of series: Observation of side effects / tolerability in ZDF rats.
For series [4] the following is noted: once-daily valsartan 160 mg; cited from earlier work.
Series [5] deals with male Zucker diabetic fatty rats. The series can be described thus: Tail cuff blood pressure in male ZDF rats after IP peptide. Set-up: systolic blood pressure within 15 minutes of administration: unit not given here. As to conditions: for mean systolic blood pressure, baseline: 8.5-week-old male ZDF rats before single IP: pegylated 1 mg/kg (n=3), scrambled 2 mg/kg (n=4); for Estimate: difference in mean diastolic blood pressure vs scrambled decoy peptide 2 (time series analysis) / Estimate: difference in mean systolic blood pressure vs scrambled decoy peptide 2 (time series analysis): pegylated 1 mg/kg IP vs scrambled 2 mg/kg IP (reference = 0). In kind it is in vivo, rat. The protocol:
Animals. Male ZDF and lean (+/?) Zucker rats were obtained from Charles River Laboratories (Kingston, NY) at approximately 6-7 weeks of age. The rats were single housed upon arrival, without enrichment. Rats were acclimatized for two weeks prior to experimental procedures. Rats were provided ad libitum access to food and water and maintained in a 12 h light/dark cycle with lights on at 0630. The procedures occurred during the light phase of the cycle. Blood pressure testing (following acute or chronic administration of the decoy peptides) was conducted in three separate cohorts of animals.
Cohort 1: Three 25-week-old male ZDF and three, age-matched, male Zucker lean rats (ZLR) treated with IP decoy peptide 2 (ZDF) vs saline (vehicle) (ZLR).
Cohort 2: Eleven-week old male ZDF (n=5) and Zucker lean rats (n=4) treated with IP decoy peptide 2.
Cohort 3: Twelve 8.5-week old male Zucker diabetic fatty rats were randomly assigned to one of three treatment groups (n=4/group). The rats underwent baseline blood pressure determinations using tail-cuff plethysmography technique. Next, the animals who expressed baseline hypertension, i.e., blood pressure >135/85, received either a 1 mg/kg intraperitoneal injection of pegylated decoy peptide 2 (n=3); a 2 mg/kg intraperitoneal dose of a scrambled decoy peptide 2 (n=4); or vehicle (i.e., sterile saline) (N=4). Blood pressure was determined at 15 minutes, 45 minutes, 4 hours, 8 hours, 24 hours, 30 and 48 hours following single IP injection. One week later, the same two groups of ZDF rats received either 0.75 mg/kg IP pegylated decoy peptide 2, 2 mg/kg scrambled decoy peptide 2, or sterile saline; and blood pressure was determined at similar timepoints. Two weeks later, two groups of 12-week-old ZDF rats (n=6/group) including those that had previously received acute peglyated decoy peptide 2 or scrambled decoy peptide 2 were treated on an alternative daily schedule with IP, free decoy peptide 2 (2 mg/kg) vs IP scrambled decoy peptide 2 (2 mg/kg) continuously for 13 weeks until sacrifice at 25 weeks of age. Body weight was determined immediately before sacrifice and after perfusion; and hearts were excised and weighed for determination of the heart-to-(perfused) body weight ratio.
Blood pressure monitoring. Tail cuff blood pressure measurement was performed using an automated CODA noninvasive blood pressure system (Kent Scientific, Torrington, CT). Rats were placed on an insulated warming platform in a well-heated room to ensure proper body temperature. Cuff monitors were provided in different sizes to accommodate rats of different ages and having different body weights. After the animal was positioned in the clear plastic restraint holder, the appropriate-sized cuff was slid over the rat's tail.
Statistical Analysis. Comparisons were made using Student's unpaired t-test (Tables 3-6, 9 and FIG. 18) or time series analysis (Tables 7, 8, FIG. 16).
Blood pressure monitoring. Tail cuff blood pressure measurement was performed using an automated CODA noninvasive blood pressure system (Kent Scientific, Torrington, CT.). Rats were placed on an insulated warming platform in a well-heated room to ensure proper body temperature. Cuff monitors were provided in different sizes to accommodate rats of different ages and having different body weights. After the animal was positioned in the clear plastic restraint holder, the appropriate-sized cuff was slid over the rat's tail.
Experiment 1: Four 12-week-old male ZDF rats were randomly assigned to receive either a single IP injection of a scrambled sequence (SEQ ID NO: 7) of Peptide ID #2 (SEQ ID NO: 2) at 1 mg/kg concentration or a 1 mg/kg concentration of myristolated Peptide ID #2 (SEQ ID NO: 9). Blood pressure was determined using tail cuff plethysmography (Kent Scientific) at 1, 4, 6, 48 and 72 hours post-injection.
Experiment 2: Six 12-week-old male ZDF rats were assigned to each of three treatment groups (N=2/group). […]

The test system of series [6] is Zucker diabetic fatty rats. The note with it: rat, in vivo.
The test system of series [7] is Zucker diabetic fatty rats. The series can be described thus: Plasma hepatic transaminases (AST, ALT) after chronic IP treatment of ZDF rats. It counts as in vivo, rat. The note with it: 2 mg/kg IP alternate daily weeks 10-16, blood at week 16, vs saline. The protocol:
Two groups of Zucker diabetic fatty rats (N=4 each) were treated with alternate daily intraperitoneal dose (IP) of either a composition comprising decoy peptide 2 (SEQ ID NO: 2) (2 mg/kg) or an equal volume of sterile saline (vehicle) for […] (between weeks 10-16). Blood was obtained at week 16 for determination of plasma hepatic transaminases (AST, ALT) and plasma triglycerides.

The mark [8] stands for this setting: 8.5-week-old male ZDF rats, single IP: pegylated 1 mg/kg, scrambled 2 mg/kg.
[9] abbreviates: ZDF rats, before pegylated 0.75 mg/kg IP.
[10] abbreviates: ZDF rats, pegylated 0.75 mg/kg single IP.
[11] abbreviates: ZDF rats, listed as Peg decoy peptide 2.
Setting [12] is: ZDF rats, pegylated 1 mg/kg single IP.

Several values for one entry are separate records, joined by “and”; a condition that tells them apart may be missing. Equal values may be shown once. Entries after “also recorded” stand apart in the source; their conditions may differ. Ends that are not written are not given here.

With `CC/C=C\C/C=C\C/C=C\C/C=C\C/C=C\CCCC(=O)O` [EPA], in series [1] (REDUCE-IT), the “HR for cardiovascular events” value is reported as 0.75 and the “reduction in occurrences of cardiovascular death, nonfatal heart attack, nonfatal stroke, coronary stenting or bypass or unstable angina” value is 25%. Further, in series [1] (humans, chronic treatment, REDUCE-IT after 1 year), the “reduction of plasma triglyceride level” value is 18% and 18.3%.

As to `CN(C)C(=N)N=C(N)N` [metformin], the “serum ALT, times higher than upper limit of normal” value in series [2] (both groups) is reported as “more than 3 times”. Further, in series [2] (metformin or vehicle (both groups)), the “serum ALT” value was ~142 IU/L.

On to `CC(C)C[C@H](NC(=O)[C@H](CS)NC(=O)[C@H](CC(=O)O)NC(=O)[C@H](CC(N)=O)NC(=O)[C@H](CO)NC(=O)[C@H](C)NC(=O)[C@@H](N)CC(C)C)C(=O)N[C@@H](CC(=O)O)C(=O)O` [scrambled decoy peptide 2, reference compound], for which the “untoward physical or behavioral effect” value in series [3] (ten ZDF rats (Expt 1 and 2), up to 14-21 days after single IP) was “None of the ten rats tested (N=4 in Expt 1; N=6 in Expt 2) experienced any untoward physical or behavioral effect”.

Consider `CCCCC(=O)N(Cc1ccc(-c2ccccc2-c2nnn[nH]2)cc1)[C@H](C(=O)O)C(C)C` [valsartan], for which the “systolic blood pressure-lowering effect after 24 hours, in words” value in series [4] was “no significant systolic blood pressure-lowering effect”.

As for “K(DBCO-DSPE-PEG2K)-SCLLADDN (not fully specified; Lys-DBCO-DSPE-PEG2000 conjugate; MOD_RES (1)..(1) Lys(Azide)) [pegylated decoy peptide 2]”, the “mean systolic blood pressure, baseline” value in series [5] is recorded as 155 mm Hg. The “mean systolic blood pressure, baseline” value in series [5] (listed as Pegylated decoy peptide 2) is recorded as 155+/−12 mm Hg. The “mean diastolic blood pressure, baseline” value in series [5] (8.5-week-old male ZDF rats before single IP: pegylated 1 mg/kg, scrambled 2 mg/kg) is 105+/−8 mm Hg. Besides, in series [5] (setting [8]), the “mean diastolic blood pressure 45 minutes post-injection” value is 92+/−11 mm Hg and the “mean systolic blood pressure 45 minutes post-injection” value is on record as 122+/−5 mm Hg. In series [5] (setting [9]), the “diastolic blood pressure, baseline” value is given as 108 mm Hg and the “systolic blood pressure, baseline” value is 154 mm Hg. Further, in series [5] (setting [10]), the “diastolic blood pressure 30 hours post injection” value was found to be 80 mm Hg, the “diastolic blood pressure at 45 minutes post-injection” value came to 80 mm Hg, the “diastolic blood pressure lowering at 45 minutes post-injection” value was 19% and the “reduction of systolic blood pressure at 45 minutes post-injection” value amounted to 17%. For the same molecule, in series [5] (setting [10]), the “reduction of systolic blood pressure between 24-30 hours after injection” value is 14-19%, the “systolic blood pressure at 45 minutes post-injection” value worked out at 128 mm Hg, the “time at which diastolic blood pressure recovered to baseline” value turned out to be 48 h and the “time at which systolic blood pressure recovered to baseline” value was 48 h. Moreover, in series [5] (ZDF rats), the “Estimate: difference in mean diastolic blood pressure vs scrambled decoy peptide 2 (time series analysis)” value is listed as −9.8 mm Hg and the “Estimate: difference in mean systolic blood pressure vs scrambled decoy peptide 2 (time series analysis)” value was −8.9 mm Hg. Further, in series [5] (setting [11]), the “Estimate: difference in mean diastolic blood pressure vs scrambled decoy peptide 2 (time series analysis)” value is on record as −9.7771 mm Hg and the “Estimate: difference in mean systolic blood pressure vs scrambled decoy peptide 2 (time series analysis)” value is recorded as −8.9162 mm Hg. Further, in series [5] (setting [12]), the “change of systolic blood pressure within 15 minutes vs baseline” value is on record as −28%; the “diastolic blood pressure lower than baseline at 30 hours post injection” value was found to be 34%; the “maximum reduction of diastolic blood pressure, 8 hours after injection” value is 36%; the “reduction of diastolic blood pressure at 4 hours post-injection” value turned out to be 20%. Further, in series [5] (setting [12]), the “systolic blood pressure within 15 minutes of administration” value stood at 111 and the “time after which systolic blood pressure had returned to baseline” value came to 48 h. Further, the “dose dependence of systolic and diastolic blood pressure lowering, in words” value in series [5] (ZDF rats, single IP 0.75 to 1 mg/kg) is “significant, dose-dependent systolic and diastolic blood pressure lowering effects; also recorded: significant, dose-dependent, long-lasting systolic and diastolic blood pressure-lowering effect”. Further, in series [5] (ZDF rats, single IP: pegylated 1 mg/kg, scrambled 2 mg/kg), the “effect on diastolic blood pressure, in words” value was “trend of significant acute decline in diastolic blood pressure”. In addition, the “sustained reductions in systolic and diastolic blood pressure 30 hours after administration” value in series [5] (male ZDF rat, pegylated 1 mg/kg) was 25-26%. For the same molecule, the “tolerability after the initial dose” value in series [6] is listed as “no sedation or hypotension was observed after the initial dose”.

In the case of SCLLADDN [decoy peptide 2], the “mean plasma AST” value in series [7] is “did not differ significantly; also recorded: not associated with significant increase in AST”. Also, the “side effects of acute blood pressure-lowering” value in series [3] (11-week-old male ZDF rats (N=5), 2 mg/kg IP) was “none of the five male ZDF rats experienced any untoward side effects including hypotension or acute sedation”. Further, the “acute side effects after first dose” value in series [3] (25-week-old male ZDF rats, 2 mg/kg IP, two of three rats, resolved spontaneously) was “sedation and borderline hypotension”. The “side effects after repeat drug exposure” value in series [3] (25-week-old male ZDF rats, up to 18 days after repeat 2 mg/kg IP) is “no untoward acute or long-term side effects”. Further, the “long-term side effects after chronic administration” value in series [3] (ZDF rats, chronic (10 weeks) administration) is given as “No untoward long-term side effects were observed”. In addition, the “safety and tolerability of alternate daily dosing” value in series [3] (obese Zucker rats, 2 mg/kg alternate daily) is “safe, well-tolerated”.
